Experimental data: article PMC9747239, “State-selective modulation of heterotrimeric Gαs signaling with macrocyclic peptides” (Cell, 2022)
Where a SMILES comes first, the peptide text is derived from it. Bridges are numbered along the chain shown (N, C = ends). Where no end group is shown, it is not given here. [ ]: non-standard residue; d: D form. The star is where a group is joined. NH(CH2CH2O)2(CH2)6Cl = ClCCCCCCOCCOCCN*

T1: Biotinylated Avi-Gαs (WT), residues 7-380 of the short isoform of human Gαs (human, biotin on the Avi tag)
T1 construct: Gαs (GNAS), human, short isoform (380 residues), residues 7-380; Loaded with GppNHp (GNP) or GDP as the assay says; also called Biotinylated Gαs/GNP; Biotinylated Gαs/GDP; source: E. coli BL21(DE3), purified (TALON, Source-15Q, gel filtration), biotinylated with BirA; not shown: Avi tag, N-terminal, kept; His6, N-terminal, cleaved
T1 chain: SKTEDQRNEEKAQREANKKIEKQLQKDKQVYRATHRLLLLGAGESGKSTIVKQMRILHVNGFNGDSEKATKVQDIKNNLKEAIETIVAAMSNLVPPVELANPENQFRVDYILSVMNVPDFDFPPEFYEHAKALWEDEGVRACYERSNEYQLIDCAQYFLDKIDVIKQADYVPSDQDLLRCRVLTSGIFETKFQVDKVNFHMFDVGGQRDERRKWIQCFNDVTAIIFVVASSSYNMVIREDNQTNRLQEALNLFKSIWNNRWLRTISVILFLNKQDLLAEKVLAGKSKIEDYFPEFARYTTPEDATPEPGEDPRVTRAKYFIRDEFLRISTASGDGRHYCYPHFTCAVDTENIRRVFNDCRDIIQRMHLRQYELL


Legend:
HeLa cells = experiment: Chloroalkane penetration assay (CAPA); assay type: cell-based, human; details: HeLa cells expressing HaloTag, 19.5 h incubation
Experimental: The cell lines used for CAPA were HeLa cell lines, generated by Chenoweth and co-workers, that stably express HaloTag exclusively in the cytosol ([Peraro et al., 2018]). Cells were seeded in a 96-well plate the day before the experiment at a density of 4 × 10^4 cells per well. The day of the experiment the media was aspirated, and 100 μL of cyclic peptide dilutions in DMEM were added to the cells. Plate was incubated for 19.5 h at 37°C with 5% CO2. The contents of the wells were aspirated off, and wells were washed using fresh Opti-MEM for 15 min. The wash was aspirated off, and the cells were chased using 5 μM ct-TAMRA for 15 min, except for the No-ct-TAMRA control wells, which were incubated with Opti-MEM alone. The contents of the wells were aspirated and washed with fresh Opti-MEM for 30 min. After aspiration, cells were rinsed once with PBS (PBS). The cells were then trypsinized, quenched with DMEM, resuspended in PBS, and analyzed using a benchtop flow cytometer (CytoFLEX, Beckman). Final [cyclic peptide]: 0, 0.034, 0.10, 0.31, 0.93, 2.78, 8.33, 25 μM.

[1] = target: T1, Biotinylated Avi-Gαs (WT), residues …; experiment: BLI; biotinylated Gαs loaded with GDP immobilised on streptavidin biosensors (2-3 nm), cyclic peptide as analyte (4.12-1000 nM), association 120 s, dissociation 120 s, 25 °C, 10 mM HEPES pH 7.4, 150 mM NaCl, 1 mM MgCl2, 0.05% Tween 20, 0.1% DMSO, 0.2 mM GDP; double reference subtraction, 1:1 binding model; details: both partners purified

Molecule	cell penetration (CAPA) (HeLa cells)	koff [1] [s⁻¹]	kon [1] [M⁻¹ s⁻¹]
CC[C@H](C)[C@@H]1NC(=O)[C@H](C)NC(=O)[C@H](Cc2ccc(O)cc2)NC(=O)[C@H](C(C)C)NC(=O)[C@H](CO)NC(=O)[C@H](CCC(N)=O)NC(=O)[C@H](Cc2ccccc2)NC(=O)[C@@H](Cc2ccc(O)cc2)NC(=O)CSC[C@@H](C(=O)NCC(=O)NCCOCCOCCCCCCCl)NC(=O)[C@H](CC(C)C)NC(=O)[C@H]([C@@H](C)O)NC(=O)CNC(=O)[C@H](Cc2c[nH]c3ccccc23)NC1=O [ct-GN13-E3Q] ({CH2CO}-[dY]FQSVYAIWGTLCG-{NH(CH2CH2O)2(CH2)6Cl}; thioether N-13)	measurable cell penetration	–	–
CC[C@H](C)[C@@H]1NC(=O)[C@H](CC(C)C)NC(=O)[C@@H](Cc2ccc(O)cc2)NC(=O)CSC[C@@H](C(=O)NCC(=O)NCCOCCOCCCCCCCl)NC(=O)[C@@H]2CCCN2C(=O)[C@H](CC(C)C)NC(=O)[C@H](CC(N)=O)NC(=O)[C@H](Cc2ccccc2)NC(=O)[C@H](C)NC(=O)[C@H](Cc2c[nH]c3ccccc23)NC(=O)[C@H](CCC(N)=O)NC(=O)[C@H](CCCNC(=N)N)NC(=O)[C@H](Cc2ccccc2)NC(=O)[C@H]([C@@H](C)O)NC1=O [ct-GD20] ({CH2CO}-[dY]LITFRQWAFNLPCG-{NH(CH2CH2O)2(CH2)6Cl}; thioether N-14)	cell permeable	–	–
CC[C@H](C)[C@@H]1NC(=O)[C@H](CC(C)C)NC(=O)[C@@H](Cc2ccc(O)cc2)NC(=O)CSC[C@@H](C(=O)NCC(=O)NCCOCCOCCCCCCCl)NC(=O)[C@@H]2CCCN2C(=O)[C@H](CC(C)C)NC(=O)[C@H](CC(N)=O)NC(=O)[C@H](CC(C)C)NC(=O)[C@H](C)NC(=O)[C@H](Cc2c[nH]c3ccccc23)NC(=O)[C@H](CCC(N)=O)NC(=O)[C@H](CCCNC(=N)N)NC(=O)[C@H](Cc2ccccc2)NC(=O)[C@H]([C@@H](C)O)NC1=O [ct-GD20-F10L] ({CH2CO}-[dY]LITFRQWALNLPCG-{NH(CH2CH2O)2(CH2)6Cl}; thioether N-14)	further improved cell penetration	–	–
{CH2CO}-[dY]LITFRQWAFNLPCG (thioether N-14, Selected by RaPID mRNA display; Synthesised on NovaPEG Rink Amide resin, so a C-terminal amide is surmised; source: synthetic peptide (Fmoc solid phase synthesis, cyclised, RP-HPLC)) [GD20]	–	0.00343	109000
